Assay results reported in US20200254065A1, “LONG-ACTING GLP-2 ANALOGS” (OPKO Biologics Ltd., priority 2019, published 2020).
Marks after values point to notes of the source that are not given here. Square brackets hold non-standard residues; d marks the D form. Peptide text beside a SMILES is read from it. Nle = CCCC[C@H](N)C(=O)O

How the values were obtained:
small intestine = test: Intestine weight model in rats; assay type: in vivo, SD rats; conditions: for Small intestine weight increase over vehicle (%): MAL-FMS-V4 compared to Vehicle 2
Method in brief: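 Rat intestinal growth model: conjugates given s.c. at 0.5–8.0 mg/kg peptide dose, as one injection, on days 1 and 3, or every 6 days; small intestine weighed on day 3, 6, 7, 10, 12 or 14. Histology (H&E, duodenum/jejunum/ileum) gave crypt+villus length. Both reported as % increase over vehicle.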

[1] = PK after single SC injection in rats (LC-MS/MS); conditions: rat, in vivo, 2 mg/kg
Method: To support the pharmacodynamic effects of V4 and Cys-FMS-V4 as detailed in Example 9, a pharmacokinetic analysis was also conducted. In this study (Study reference 15204), all animals were injected SC on Day 1 with 2 mg/kg peptide content of V4, Cys-FMS-V4 and Apraglutide. Blood samples were collected at 2, 8, 12, 24, 36, 48, 72, 96, 120 hours, and Days 7, 8, 9, 10, 11, 12, 13 and 14 post-dose administration and subsequently taken to LC-MS/MS analysis to determine plasma levels of each compound. For Cys-FMS-V4, a 2-analyte method was applied to determine the plasma concentrations of both the full conjugate and the V4 that was hydrolyzed from it (V4 hydrolyzed). Plasma concentrations (μM), as measured by using the LC-MS/MS method, of V4 peptide, Cys-FMS-V4, hydrolyzed V4, and Apraglutide are presented in FIG. 17.

In the case of `CCCC[C@H](NC(=O)[C@H](CCC(=O)O)NC(=O)[C@H](CC(=O)O)NC(=O)[C@H](CO)NC(=O)[C@H](Cc1ccccc1)NC(=O)[C@H](CO)NC(=O)CNC(=O)[C@H](CCC(=O)O)NC(=O)CNC(=O)[C@@H](N)Cc1c[nH]cn1)C(=O)N[C@@H](CC(N)=O)C(=O)N[C@H](C(=O)N[C@H](C(=O)N[C@@H](CC(C)C)C(=O)N[C@@H](CC(=O)O)C(=O)N[C@@H](CC(C)C)C(=O)N[C@@H](CC(C)C)C(=O)N[C@@H](C)C(=O)N[C@@H](C)C(=O)N[C@@H](CCCNC(=N)N)C(=O)N[C@@H](CC(=O)O)C(=O)N[C@@H](Cc1ccccc1)C(=O)N[C@H](C(=O)N[C@@H](CC(N)=O)C(=O)N[C@@H](Cc1c[nH]c2ccccc12)C(=O)N[C@@H](CC(C)C)C(=O)N[C@H](C(=O)N[C@@H](CCC(N)=O)C(=O)N[C@H](C(=O)N[C@@H](CCCCN)C(=O)N[C@H](C(=O)N[C@H](C(=O)N[C@@H](CC(=O)O)C(N)=O)[C@@H](C)O)[C@@H](C)CC)[C@@H](C)O)[C@@H](C)CC)[C@@H](C)CC)[C@@H](C)CC)[C@@H](C)O` [Variant 4] (H-HGEGSFSDE[Nle]NTILDLLAARDFINWLIQTKITD-NH2), the “Small intestine weight percent increase over vehicle (FIG. 12)” value (small intestine; Study 15203, single SC 2 mg/kg peptide content on Day 1, Days 6 and 10) is reported as “the most favorable results”, the “Small intestine weight percent increase over vehicle (FIG. 15)” value (small intestine; Study 15205, single SC 0.5, 2.0 or 8.0 mg/kg, Days 3, 7 and 14) is reported as “reached maximal acute response at day 3” and the “Increase of intestine weight over vehicle (%)” value (small intestine; modified peptides, two injections on days 1 & 3 at 1 mg/kg, intestine weight on day 6) is reported as 89%. For the same molecule, the “Avg. small intestine weight (gr)” value (small intestine; normal SD rats, injected once at 2 mg/kg peptide dose, 6th day) was 7.0 gr, the “Small intestine weight increase over vehicle (%)” value (small intestine; normal SD rats, injected once at 2 mg/kg peptide dose, 6th day, listed as V4, 2 mg/kg) was 43.0** % and the “Small intestine weight increase over vehicle (%)” value (small intestine; normal SD rats, injected once at 2 mg/kg peptide dose, 6th day, listed as V4 peptide, 2 mg/kg) was “the most pronounced effect on the small intestine weight”. For the same molecule, the AUC(0-inf) [1] was 14.6 µM·h, the AUC(0-t) [1] was 13.7 µM·h and the CL/F [1] was 0.617 mL/min/kg. The Cmax [1] was 490 nM, the “Time post injection up to which detectable in blood” value [1] was no more than 240 h and the Tmax [1] was 12 h. For the same molecule, the Vd/F [1] was 4.07 L/kg and the half-life [1] was 77 h.
